According to ChEMBL document CHEMBL5329150, “STING antagonists, synthesized via Povarov-Doebner type multicomponent reaction” (RSC Med Chem, 2023):

Target: Cyclic GMP-AMP synthase (Mus musculus, UniProt Q8C6L5)
Test: Inhibition of mouse cGAS by ATP consumption assay

Cyclic GMP-AMP synthase, sequence (Q8C6L5 whole entry): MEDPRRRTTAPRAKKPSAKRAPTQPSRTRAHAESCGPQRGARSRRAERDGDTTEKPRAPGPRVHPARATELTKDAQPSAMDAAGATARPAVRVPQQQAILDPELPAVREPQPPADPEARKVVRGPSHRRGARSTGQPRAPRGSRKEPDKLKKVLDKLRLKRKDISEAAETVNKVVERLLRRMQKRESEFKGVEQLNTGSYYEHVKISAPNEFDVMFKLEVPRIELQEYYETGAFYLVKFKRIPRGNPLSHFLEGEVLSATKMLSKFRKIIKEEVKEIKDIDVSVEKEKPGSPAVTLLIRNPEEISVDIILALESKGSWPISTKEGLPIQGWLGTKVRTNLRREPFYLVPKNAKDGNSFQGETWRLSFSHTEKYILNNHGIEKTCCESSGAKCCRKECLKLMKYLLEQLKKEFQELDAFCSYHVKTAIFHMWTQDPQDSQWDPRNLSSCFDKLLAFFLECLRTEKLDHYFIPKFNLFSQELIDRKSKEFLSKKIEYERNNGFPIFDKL

With CCn1nc(C)cc1C(=O)Nc1nc2cc(C(N)=O)cc(OC)c2n1C/C=C/Cn1c(NC(=O)c2cc(C)nn2CC)nc2cc(C(N)=O)cc(OCCCN3CCOCC3)c21 the IC50 was 270 nM.
